One block for each compound: values may come before it.
Legend:
[1] = target: Serine/threonine-protein kinase 38 (Homo sapiens) (UniProt Q15208); experiment: Selectivity interaction (LanthaScreen Eu Kinase Binding Assay) EUB0001632a STK38; settings: at 10 µM
[2] = target: Microtubule-associated serine/threonine-protein kinase 1 (Homo sapiens) (UniProt Q9Y2H9); experiment: Selectivity interaction (KinomeScan (DiscoverX)) EUB0000666a MAST1; settings: at 10 µM
[3] = target: Serine/threonine-protein kinase 26 (Homo sapiens, UniProt Q9P289); experiment: Selectivity interaction (KinomeScan (DiscoverX)) EUB0000666a STK26; settings: at 10 µM
[4] = target: T1, Homeodomain-interacting protein kinase 4 (Homo sapiens) (UniProt Q8NE63); experiment: Selectivity interaction (SelectScreen profiling (Invitrogen)) EUB0000607a HIPK4; settings: at 2 µM
T1 sequence (whole entry): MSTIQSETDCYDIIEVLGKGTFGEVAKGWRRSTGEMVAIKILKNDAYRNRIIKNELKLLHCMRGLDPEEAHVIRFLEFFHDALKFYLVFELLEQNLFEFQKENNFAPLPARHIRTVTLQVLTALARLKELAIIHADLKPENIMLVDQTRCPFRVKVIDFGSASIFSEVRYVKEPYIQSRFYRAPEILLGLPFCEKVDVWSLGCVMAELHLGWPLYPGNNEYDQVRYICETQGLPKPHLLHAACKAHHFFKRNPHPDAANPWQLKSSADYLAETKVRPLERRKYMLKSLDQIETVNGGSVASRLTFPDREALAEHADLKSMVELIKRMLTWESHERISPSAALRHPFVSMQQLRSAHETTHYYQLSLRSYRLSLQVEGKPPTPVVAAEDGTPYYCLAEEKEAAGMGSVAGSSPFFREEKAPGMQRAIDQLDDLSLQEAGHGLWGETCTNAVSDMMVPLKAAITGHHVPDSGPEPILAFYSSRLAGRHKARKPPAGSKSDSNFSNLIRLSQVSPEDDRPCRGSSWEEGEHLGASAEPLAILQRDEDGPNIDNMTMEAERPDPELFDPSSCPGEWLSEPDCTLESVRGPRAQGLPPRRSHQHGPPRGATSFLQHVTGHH

[5] = target: T2, Ephrin type-B receptor 6 (Homo sapiens) (UniProt O15197); experiment: Selectivity interaction (KinomeScan (DiscoverX)) EUB0000607a EPHB6; settings: at 10 µM
T2 sequence (whole entry): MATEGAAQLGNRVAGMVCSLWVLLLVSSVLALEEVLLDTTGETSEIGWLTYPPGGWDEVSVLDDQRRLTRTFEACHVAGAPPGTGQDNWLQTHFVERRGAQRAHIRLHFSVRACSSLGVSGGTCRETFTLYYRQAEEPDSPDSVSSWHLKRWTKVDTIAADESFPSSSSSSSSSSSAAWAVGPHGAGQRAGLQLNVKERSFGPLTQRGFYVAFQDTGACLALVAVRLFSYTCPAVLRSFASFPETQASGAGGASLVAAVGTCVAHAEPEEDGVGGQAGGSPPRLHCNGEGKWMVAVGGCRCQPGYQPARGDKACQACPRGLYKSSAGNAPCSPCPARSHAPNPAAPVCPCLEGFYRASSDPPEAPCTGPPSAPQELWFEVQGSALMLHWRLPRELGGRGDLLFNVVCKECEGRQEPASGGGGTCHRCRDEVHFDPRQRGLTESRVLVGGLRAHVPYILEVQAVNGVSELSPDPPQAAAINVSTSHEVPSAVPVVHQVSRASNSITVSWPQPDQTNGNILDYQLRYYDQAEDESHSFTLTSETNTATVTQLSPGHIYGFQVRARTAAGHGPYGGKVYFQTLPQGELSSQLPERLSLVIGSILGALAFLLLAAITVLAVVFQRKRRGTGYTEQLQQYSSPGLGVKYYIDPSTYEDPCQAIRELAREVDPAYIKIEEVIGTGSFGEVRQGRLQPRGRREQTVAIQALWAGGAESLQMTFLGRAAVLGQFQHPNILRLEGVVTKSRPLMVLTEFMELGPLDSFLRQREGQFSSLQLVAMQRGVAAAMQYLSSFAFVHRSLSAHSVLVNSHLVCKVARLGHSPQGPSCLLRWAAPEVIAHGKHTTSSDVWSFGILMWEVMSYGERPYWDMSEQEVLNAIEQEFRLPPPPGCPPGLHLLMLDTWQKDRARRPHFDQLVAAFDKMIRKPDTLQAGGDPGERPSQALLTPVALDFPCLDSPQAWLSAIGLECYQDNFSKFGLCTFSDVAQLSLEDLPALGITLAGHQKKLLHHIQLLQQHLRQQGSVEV

[6] = target: Cyclin-dependent kinase 2/cyclin E (Homo sapiens) (UniProt P24864+P24941+O96020); experiment: Selectivity interaction (Upstate Kinase Profiler service (Millipore)) EUB0000056c CDK2; format: protein-complex assay; settings: at 1 µM
[7] = target: 5'-AMP-activated protein kinase catalytic subunit alpha-1 (Homo sapiens, UniProt Q13131); experiment: Selectivity interaction (ActivX KiNativ screen (kinase selectivity in THP-1 cell lysates)) EUB0000639a PRKAA1; format: subcellular; settings: lysate
[8] = target: Vascular endothelial growth factor receptor 1 (Homo sapiens) (UniProt P17948); experiment: Selectivity interaction (KinomeScan (DiscoverX)) EUB0000655a FLT1; settings: at 10 µM
[9] = target: Dual specificity protein kinase CLK2 (Homo sapiens, UniProt P49760); experiment: Selectivity interaction (KinomeScan (DiscoverX)) EUB0001079a CLK2; settings: at 1 µM
[10] = target: Serine/threonine-protein kinase MARK1 (Homo sapiens) (UniProt Q9P0L2); experiment: Selectivity interaction (Kinase panel (KiNativ target engagement assay in Jurkat cells)) EUB0001635a MARK1; format: cell-based; settings: at 1 µM
[11] = target: Bromodomain and WD repeat-containing protein 1 (Homo sapiens) (UniProt Q9NSI6); experiment: Selectivity interaction (Bromodomain panel (DSF asssay)) EUB0000270b BRWD1
[12] = target: Histone-lysine N-methyltransferase SETDB1 (Homo sapiens) (UniProt Q15047); experiment: Selectivity interaction (PWWP, WD40, and Tudor domain panel (DSLS measurements, literature)) EUB0000270b SETDB1
[13] = target: cAMP-dependent protein kinase catalytic subunit alpha (Homo sapiens, UniProt P17612); experiment: Selectivity interaction (Enzyme panel (AstraZeneca, AlphaScreen, functional assay)) EUB0000621a PRKACA
[14] = target: Mitogen-activated protein kinase 4 (Homo sapiens) (UniProt P31152); experiment: Selectivity interaction (KinomeScan (DiscoverX)) EUB0000618a MAPK4; settings: at 10 µM
Sequence of Mitogen-activated protein kinase 4 (Homo sapiens) (P31152 whole entry): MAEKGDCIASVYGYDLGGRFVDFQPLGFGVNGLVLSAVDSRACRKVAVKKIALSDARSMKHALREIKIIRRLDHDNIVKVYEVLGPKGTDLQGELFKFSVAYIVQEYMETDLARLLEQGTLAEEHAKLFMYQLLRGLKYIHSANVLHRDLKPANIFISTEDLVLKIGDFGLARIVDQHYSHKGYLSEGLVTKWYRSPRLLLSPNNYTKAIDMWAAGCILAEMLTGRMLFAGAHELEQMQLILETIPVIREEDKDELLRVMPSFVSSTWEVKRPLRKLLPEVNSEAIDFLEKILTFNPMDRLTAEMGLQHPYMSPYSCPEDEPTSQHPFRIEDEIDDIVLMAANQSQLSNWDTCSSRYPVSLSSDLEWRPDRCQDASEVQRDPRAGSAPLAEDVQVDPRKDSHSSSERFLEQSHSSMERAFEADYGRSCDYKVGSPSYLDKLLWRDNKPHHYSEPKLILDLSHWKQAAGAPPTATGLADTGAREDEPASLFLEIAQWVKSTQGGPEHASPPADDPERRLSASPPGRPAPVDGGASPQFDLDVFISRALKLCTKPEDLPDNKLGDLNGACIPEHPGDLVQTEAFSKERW

Sequence of 5'-AMP-activated protein kinase catalytic subunit alpha-1 (Q13131 whole entry, looked up): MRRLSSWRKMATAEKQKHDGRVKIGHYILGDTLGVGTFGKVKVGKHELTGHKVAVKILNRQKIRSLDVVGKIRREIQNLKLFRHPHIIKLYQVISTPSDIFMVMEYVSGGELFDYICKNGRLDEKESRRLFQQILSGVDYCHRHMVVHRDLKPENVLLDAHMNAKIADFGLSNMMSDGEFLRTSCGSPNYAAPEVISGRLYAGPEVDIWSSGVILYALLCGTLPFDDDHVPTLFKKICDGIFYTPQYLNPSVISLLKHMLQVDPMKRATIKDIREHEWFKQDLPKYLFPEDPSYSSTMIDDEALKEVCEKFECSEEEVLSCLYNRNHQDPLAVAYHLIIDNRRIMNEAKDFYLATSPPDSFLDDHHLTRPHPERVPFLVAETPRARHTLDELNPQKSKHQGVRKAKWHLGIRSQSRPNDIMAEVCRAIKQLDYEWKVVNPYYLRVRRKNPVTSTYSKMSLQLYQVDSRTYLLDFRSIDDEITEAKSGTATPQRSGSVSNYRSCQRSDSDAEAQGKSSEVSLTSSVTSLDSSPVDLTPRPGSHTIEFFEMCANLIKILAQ
Sequence of Serine/threonine-protein kinase MARK1 (Homo sapiens) (Q9P0L2 whole entry, looked up): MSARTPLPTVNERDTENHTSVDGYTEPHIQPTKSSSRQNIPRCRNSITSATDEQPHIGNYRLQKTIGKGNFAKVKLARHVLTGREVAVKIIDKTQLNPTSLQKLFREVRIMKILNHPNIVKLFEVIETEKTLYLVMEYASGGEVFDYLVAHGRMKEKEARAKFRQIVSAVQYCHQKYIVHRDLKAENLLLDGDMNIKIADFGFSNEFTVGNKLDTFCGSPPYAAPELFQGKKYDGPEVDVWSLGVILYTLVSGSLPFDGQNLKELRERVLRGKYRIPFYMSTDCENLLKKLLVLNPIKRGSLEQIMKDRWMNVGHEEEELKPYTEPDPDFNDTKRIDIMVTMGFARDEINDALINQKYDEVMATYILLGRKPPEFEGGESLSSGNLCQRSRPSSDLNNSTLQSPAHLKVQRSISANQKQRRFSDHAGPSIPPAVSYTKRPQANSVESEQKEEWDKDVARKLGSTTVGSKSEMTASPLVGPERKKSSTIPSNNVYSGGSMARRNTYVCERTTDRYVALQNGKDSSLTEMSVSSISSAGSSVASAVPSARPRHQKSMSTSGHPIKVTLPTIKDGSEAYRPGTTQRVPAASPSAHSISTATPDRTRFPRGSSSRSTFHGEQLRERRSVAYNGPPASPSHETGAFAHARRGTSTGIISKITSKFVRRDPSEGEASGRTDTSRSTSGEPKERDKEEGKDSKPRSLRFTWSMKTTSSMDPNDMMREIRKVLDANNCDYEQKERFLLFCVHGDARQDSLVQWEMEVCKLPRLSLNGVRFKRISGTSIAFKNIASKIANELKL
Sequence of Bromodomain and WD repeat-containing protein 1 (Homo sapiens) (Q9NSI6 whole entry, the tested form may be a part): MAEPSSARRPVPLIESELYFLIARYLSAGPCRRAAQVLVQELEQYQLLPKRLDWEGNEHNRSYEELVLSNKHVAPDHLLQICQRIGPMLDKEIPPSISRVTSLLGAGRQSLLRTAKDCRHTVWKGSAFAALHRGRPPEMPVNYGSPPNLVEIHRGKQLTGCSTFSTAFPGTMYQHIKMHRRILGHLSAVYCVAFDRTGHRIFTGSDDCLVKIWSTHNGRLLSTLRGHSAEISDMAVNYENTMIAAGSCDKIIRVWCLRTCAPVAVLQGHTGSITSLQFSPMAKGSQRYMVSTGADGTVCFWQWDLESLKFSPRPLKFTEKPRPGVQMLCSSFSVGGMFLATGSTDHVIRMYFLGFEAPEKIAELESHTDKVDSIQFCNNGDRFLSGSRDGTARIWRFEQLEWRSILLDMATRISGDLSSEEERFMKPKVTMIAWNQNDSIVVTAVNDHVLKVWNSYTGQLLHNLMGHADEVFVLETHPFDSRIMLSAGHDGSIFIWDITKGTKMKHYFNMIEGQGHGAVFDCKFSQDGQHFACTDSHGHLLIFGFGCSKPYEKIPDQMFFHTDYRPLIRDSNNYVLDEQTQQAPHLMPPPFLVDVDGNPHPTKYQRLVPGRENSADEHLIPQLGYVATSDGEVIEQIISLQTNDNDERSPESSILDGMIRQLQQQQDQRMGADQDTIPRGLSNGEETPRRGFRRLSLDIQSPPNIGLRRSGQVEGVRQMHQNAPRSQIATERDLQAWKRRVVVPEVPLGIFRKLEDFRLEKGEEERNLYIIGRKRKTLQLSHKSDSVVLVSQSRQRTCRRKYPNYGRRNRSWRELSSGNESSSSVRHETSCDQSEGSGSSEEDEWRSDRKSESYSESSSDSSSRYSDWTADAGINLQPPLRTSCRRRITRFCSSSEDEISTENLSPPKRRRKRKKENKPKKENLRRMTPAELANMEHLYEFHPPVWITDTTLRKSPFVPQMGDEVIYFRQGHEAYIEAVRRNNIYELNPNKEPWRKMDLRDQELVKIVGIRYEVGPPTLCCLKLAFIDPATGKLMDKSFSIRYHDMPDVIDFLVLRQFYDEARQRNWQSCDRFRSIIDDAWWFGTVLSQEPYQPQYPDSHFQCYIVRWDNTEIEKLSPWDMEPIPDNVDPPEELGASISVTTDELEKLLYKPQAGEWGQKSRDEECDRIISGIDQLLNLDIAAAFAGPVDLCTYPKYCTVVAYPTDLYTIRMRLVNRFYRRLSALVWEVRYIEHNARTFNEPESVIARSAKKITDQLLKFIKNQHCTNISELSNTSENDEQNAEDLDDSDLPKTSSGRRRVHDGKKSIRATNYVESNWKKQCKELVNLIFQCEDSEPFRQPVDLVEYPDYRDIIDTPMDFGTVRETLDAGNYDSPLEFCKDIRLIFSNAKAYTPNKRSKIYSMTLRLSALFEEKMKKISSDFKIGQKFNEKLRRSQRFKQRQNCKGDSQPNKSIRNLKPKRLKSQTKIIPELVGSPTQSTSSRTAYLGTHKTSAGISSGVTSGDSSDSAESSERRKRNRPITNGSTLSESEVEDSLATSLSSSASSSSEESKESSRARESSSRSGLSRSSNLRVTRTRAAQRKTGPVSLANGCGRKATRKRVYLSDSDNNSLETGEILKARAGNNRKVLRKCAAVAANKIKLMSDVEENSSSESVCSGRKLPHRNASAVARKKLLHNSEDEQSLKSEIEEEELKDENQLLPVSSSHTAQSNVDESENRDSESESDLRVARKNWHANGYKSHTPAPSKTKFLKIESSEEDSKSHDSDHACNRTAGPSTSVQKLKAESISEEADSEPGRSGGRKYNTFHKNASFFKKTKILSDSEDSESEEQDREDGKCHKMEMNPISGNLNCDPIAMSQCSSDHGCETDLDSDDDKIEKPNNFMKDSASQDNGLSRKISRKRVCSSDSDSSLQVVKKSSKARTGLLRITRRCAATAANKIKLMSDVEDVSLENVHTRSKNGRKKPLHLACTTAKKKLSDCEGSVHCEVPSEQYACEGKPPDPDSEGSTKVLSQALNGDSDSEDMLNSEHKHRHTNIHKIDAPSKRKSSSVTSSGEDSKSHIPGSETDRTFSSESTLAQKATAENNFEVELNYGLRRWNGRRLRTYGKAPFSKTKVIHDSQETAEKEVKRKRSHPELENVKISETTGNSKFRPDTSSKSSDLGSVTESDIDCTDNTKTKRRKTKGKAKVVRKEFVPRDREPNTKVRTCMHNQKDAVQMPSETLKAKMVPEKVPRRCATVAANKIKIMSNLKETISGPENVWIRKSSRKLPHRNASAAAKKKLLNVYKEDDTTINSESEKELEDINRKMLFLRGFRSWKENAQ
Sequence of Dual specificity protein kinase CLK2 (P49760 whole entry, looked up): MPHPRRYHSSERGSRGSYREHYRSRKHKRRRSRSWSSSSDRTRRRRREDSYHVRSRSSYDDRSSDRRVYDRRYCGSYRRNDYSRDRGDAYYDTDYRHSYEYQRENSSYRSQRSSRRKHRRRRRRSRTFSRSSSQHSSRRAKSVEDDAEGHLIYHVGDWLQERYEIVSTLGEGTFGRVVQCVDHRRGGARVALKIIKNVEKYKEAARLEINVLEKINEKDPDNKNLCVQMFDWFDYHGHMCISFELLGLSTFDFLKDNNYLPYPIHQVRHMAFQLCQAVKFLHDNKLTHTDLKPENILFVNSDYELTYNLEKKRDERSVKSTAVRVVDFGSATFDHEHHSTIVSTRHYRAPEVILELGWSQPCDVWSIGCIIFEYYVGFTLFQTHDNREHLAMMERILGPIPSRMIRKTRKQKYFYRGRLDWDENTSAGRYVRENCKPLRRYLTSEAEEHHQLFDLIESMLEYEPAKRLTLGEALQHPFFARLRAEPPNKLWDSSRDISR

% of inhibition [1]: -27%
SMILES: Cn1cc(-n2cnc3c(NCc4nc5cc(Cl)c(Cl)cc5[nH]4)nc(N4CCOCC4)nc32)cn1

SMILES: O=C(NOC[C@H](O)CO)c1ccc(F)c(F)c1Nc1ccc(I)cc1F
% of control [2]: 100%
% of control [3]: 77%

SMILES: CNC(=O)Nc1ccc(-c2nc(N3CC4CCC(C3)O4)c3cnn(C4CCC5(CC4)OCCO5)c3n2)cc1
% of inhibition [4]: 7%
% of control [5]: 83%

% of inhibition [6]: 35%
SMILES: Cc1ccc(-c2ccc3c(ccc4sc5c(c43)NC[C@@H](C)NC5=O)n2)cn1

% of inhibition ([7]; at 0.01 µM): 16%
% of inhibition ([7]; at 0.04 µM): 21.7%
% of inhibition ([7]; at 0.2 µM): 11.2%
% of inhibition ([7]; at 1 µM): 11.8%
% of inhibition ([7]; at 5 µM): 28.8%
SMILES: CC[C@@H]1[C@H](F)C(=O)N[C@@H]1COc1nccc2cc(C(N)=O)c(OC)cc12 [ZIMLOVISERTIB]

SMILES: CN(C)CCOc1ccc(-c2nc(-c3ccncc3)c(-c3ccc4c(c3)CC/C4=N\O)[nH]2)cc1
% of control [8]: 79%

SMILES: Nc1cnc(N2CCc3cc(S(=O)(=O)Nc4c(F)cc(Cl)cc4F)cc(N4CCCC4=O)c32)nc1 [TP-020n]
% of control [9]: 100%

SMILES: C=CC(=O)Nc1ccc(C(=O)Nc2[nH]nc3c2CN(C(=O)N[C@H](CN(C)C)c2ccccc2)C3(C)C)cc1
% of engagement [10]: 8.7%

dTM [11]: -1.1 K
dTagg [12]: 0.9 K
SMILES: Cc1cc(CN)cc(C)c1-c1ncn(C)c1-c1cncn1C

SMILES: Cc1cc([C@@H](C)Nc2ccccc2C(=O)O)c2nc(N3CCOCC3)cc(=O)n2c1 [AZD-6482]
IC50 [13]: > 999 µM

SMILES: O[C@H]1CC[C@H](Nc2ncc3nc(Nc4c(F)cc(F)cc4F)n([C@H]4CCOC4)c3n2)CC1
% of control [14]: 42%
